Results as given in ChEMBL document CHEMBL1150912, “A new taxane diterpenoid from Taxus mairei” (J Nat Prod, 1998).
≈ marks a conversion by molar mass, not a printed value. Starred links: 1 amine or outer side, 2 acyl side, 3 side chain; linkers in the order of their positions; H or OH if unused. Positions of bridges follow the written chain, without caps; N, C: chain ends. Non-standard residues stand in square brackets, D forms with d. Residues, ends and D or L forms follow the SMILES beside them. Chains are numbered I, II in the order given. Actinocin(1to9) = Cc1c2oc3c(C)ccc(C(=O)[*:2])c3nc-2c(C(=O)[*:1])c(N)c1=O; NMeV = CN[C@H](C(=O)O)C(C)C; Sar = CNCC(=O)O

Experiments:
HeLa = experiment: Cytotoxicity against human HeLa cells after 3 days by methylene blue assay; type: functional, cell-based; settings: 72 h
[1] = Cytotoxicity against human Hep3B cells after 3 days by methylene blue assay; type: functional, cell-based, Hep 3B2; settings: 72 h

SMILES	IC50 (HeLa)	IC50 [1]
Cc1c2oc3c(C)ccc(C(=O)N[C@@H]4C(=O)N[C@H](C(C)C)C(=O)N5CCC[C@H]5C(=O)N(C)CC(=O)N(C)[C@@H](C(C)C)C(=O)O[C@@H]4C)c3nc-2c(C(=O)N[C@@H]2C(=O)N[C@H](C(C)C)C(=O)N3CCC[C@H]3C(=O)N(C)CC(=O)N(C)[C@@H](C(C)C)C(=O)O[C@@H]2C)c(N)c1=O [DACTINOMYCIN] (I: T[dV]P[Sar][NMeV] / II: T[dV]P[Sar][NMeV]; ester I:1-I:C, II:1-II:C; linker I:N-II:N via Actinocin(1to9))	0.01 µg/mL (≈ 0.00797 µM)	0.01 µg/mL (≈ 0.00797 µM)
CO[C@@]12[C@H](COC(N)=O)C3=C(C(=O)C(C)=C(N)C3=O)N1C[C@@H]1N[C@@H]12 [MITOMYCIN]	0.01 µg/mL (≈ 0.0299 µM)	0.01 µg/mL (≈ 0.0299 µM)
CC(=O)O[C@H]1[C@@H]2[C@]3(OC(C)=O)CO[C@@H]3C[C@H](O)[C@@]2(C)[C@@H](OC(=O)c2ccccc2)[C@H](O)C2=C(C)[C@@H](O)C[C@]21C(C)(C)O [TAXUMAIROL K]	9.2 µg/mL (≈ 15.6 µM)	40 µg/mL (≈ 68 µM)
